Series [1] deals with T1, BdPyK I (Babesia duncani, UniProt A0AAD9PKI2). The series can be described thus: Enzyme kinetics of BdPyK I with gradient concentrations of substrates PEP and ADP. The note with it: substrate of BdPyK I.
Protocol: (§2) To conduct standard enzyme kinetics analysis, we employed a spectrophotometer (BioTek, located in Winooski, VT, USA) to monitor the degradation of NADH at 340 nm wavelength. At 37 °C, the oxidation of 1 micromole of NADH per minute was defined as one unit of PyK activity. Samples were measured continuously at 2, 7, 12, 17, 22, and 27 min. In order to investigate the influence of pH, Mg^2+, and K^+ concentrations on activity, tests were conducted within the pH range of 4.0–8.0 and Mg^2+ and K^+ concentrations ranging from 0 to 200 mM, including concentrations of 0, 25, 50, 75, 100, 125, 150, 175, and 200 mM. A reaction system with a total volume of 200 mL was designed, comprising 50 mM Tris-HCl buffer (pH 7.5), 50 mM MgCl2, 20 mM KCl, 3 mM PEP (MilliporeSigma), 3 mM ADP (MilliporeSigma), 0.5 mM NADH (MilliporeSigma), 100 ng recombinant lactate dehydrogenase (rBdLDH), and 100 ng BdPyK I. Enzyme activity was assessed by calculating the initial rate of NADH degradation within the first 5 min and determining the relative percentage activity.
(§3) Subsequently, Michaelis–Menten equations for the reactants PEP and ADP were formulated based on gradient concentrations, and corresponding enzyme kinetics curves were delineated.
The target of series [2] is T1, BdPyK I. The series can be described thus: BdPyK I enzyme inhibition, indirect coupled lactate dehydrogenase assay (NADH at 340 nm). Type of series: biochemical. The source says: This study aimed to investigate the effects of six small-molecule compounds on the enzyme activity of BdPyK I. These selected compounds, including PKM2 inhibitor, shikonin, tannic acid, apigenin, pioglitazone, and rosiglitazone, were initially dissolved in their respective stock concentrations using dimethyl sulfoxide (DMSO) or absolute ethanol as solvents. Subsequently, an indirect coupling lactate dehydrogenase assay was employed to evaluate the influence of these compounds on BdPyK I enzyme activity.
To conduct standard enzyme kinetics analysis, we employed a spectrophotometer (BioTek, located in Winooski, VT, USA) to monitor the degradation of NADH at 340 nm wavelength. At 37 °C, the oxidation of 1 micromole of NADH per minute was defined as one unit of PyK activity. Samples were measured continuously at 2, 7, 12, 17, 22, and 27 min. In order to investigate the influence of pH, Mg^2+, and K^+ concentrations on activity, tests were conducted within the pH range of 4.0–8.0 and Mg^2+ and K^+ concentrations ranging from 0 to 200 mM, including concentrations of 0, 25, 50, 75, 100, 125, 150, 175, and 200 mM. A reaction system with a total volume of […] was designed, comprising 50 mM Tris-HCl buffer (pH 7.5), 50 mM MgCl2, 20 mM KCl, 3 mM PEP (MilliporeSigma), 3 mM ADP (MilliporeSigma), 0.5 mM NADH (MilliporeSigma), 100 ng recombinant lactate dehydrogenase (rBdLDH), and 100 ng BdPyK I. Enzyme activity was assessed by calculating the initial rate of NADH degradation within the first 5 min and determining the relative percentage activity.
Under the conditions of 3 mM PEP and 3 mM ADP, the influence of six different small-molecule compounds on the enzymatic activity of BdPyK I was investigated across varying concentrations (0–500 μM). […] The group with the addition of DMSO was designated as the negative control group. The inhibition rate was calculated using the following formula: Inhibitor (%) = (ΔAcontrol − ΔAsample)/ΔAcontrol × 100%. All experiments were independently repeated three times to enhance the reliability and accuracy of the results. Following completion of the experiments, enzyme activity data were analyzed using GraphPad Prism 8.0 software. IC50 values for each small-molecule compound were calculated using software analysis functions. The IC50 value represents the compound concentration required to decrease enzyme activity by 50% and serves as a fundamental parameter for evaluating the inhibitory effect of compounds on enzyme activity.

The next series relates to B. duncani. The series can be described thus: In vitro growth inhibition assay of Babesia duncani (SYBR Green, 72 h). The class given is cell-based. The note with it: for parasite growth inhibition: at approximately 40 μM.
Series [3] deals with vero cells. The series can be described thus: Cytotoxicity assay, vero cells. Type of series: cell-based. Conditions: CC50 Vero versus IC50 B. duncani. From the text:
(§1) The IC50 value represents a standard metric indicating the concentration of a drug or compound necessary to impede a biological process or inhibit cell growth. In this experiment, the IC50 values of six different compounds against B. duncani in vitro were compared with their IC50 values for BdPyK I activity. […] To contextualize these findings, the CC50 values for vero cells and HFF cells from cytotoxicity assay data were considered collectively. […] Considering the activity, selectivity, and potential toxicity, this study conducted a comprehensive evaluation of the selectivity index (SI).

Series [4] has as its system HFF cells. The experiment in a line: Cytotoxicity assay, HFF cells. The class given is cell-based. The note with it: CC50 HFF versus IC50 B. duncani.
From the text: as §1

Series [5] has as its system vero cells. Details: method as in PMID 34603237. Conditions: cited from earlier work.
Series [6] has as its system HFF cells. Details: method as in PMID 34603237. Conditions: cited from earlier work.
Details of series [7]: method as in PMID 34603237. The note with it: in vivo experiments with Babesia rodents; cited from earlier work.
The test system of a further series is C=C(OP(=O)(O)O)C(=O)O. The experiment in a line: purified protein, by the assay type. Conditions: other: substrate of BdPyK I, gradient concentration; pH 7.5; 37.0 °C.
Series [8] relates to Nc1ncnc2c1ncn2[C@@H]1O[C@H](COP(=O)(O)OP(=O)(O)O)[C@@H](O)[C@H]1O. The series can be described thus: purified protein, by the assay type. Conditions: other: substrate of BdPyK I, gradient concentration; pH 7.5; 37.0 °C.
Protocol: as §2, §3
The next series has as its target BdLDH. The series can be described thus: Effect of compounds on BdLDH enzyme activity (counter-screen of the coupled assay). The class given is biochemical, Babesia duncani. Conditions: BdLDH activity evaluated separately.
Setting [9] is: Babesia duncani, in vitro culture, 72 h, Table 3, read-out: IC50 B. duncani.
The mark [10] stands for this setting: 3 mM PEP and 3 mM ADP, compound 0–500 μM, read-out: IC50 PyK I.
Setting [11] is: Babesia duncani, 72 h incubation, SYBR Green, read-out: IC50 of B. duncani growth inhibition (Figure 10).

Values joined by “and” are separate entries in the source; they are usually repeats but may differ in a detail not shown here. Equal entries are not always repeated. Where two headings read alike, the source gives them in different places.

T1 sequence (A0AAD9PKI2 entry or part of it): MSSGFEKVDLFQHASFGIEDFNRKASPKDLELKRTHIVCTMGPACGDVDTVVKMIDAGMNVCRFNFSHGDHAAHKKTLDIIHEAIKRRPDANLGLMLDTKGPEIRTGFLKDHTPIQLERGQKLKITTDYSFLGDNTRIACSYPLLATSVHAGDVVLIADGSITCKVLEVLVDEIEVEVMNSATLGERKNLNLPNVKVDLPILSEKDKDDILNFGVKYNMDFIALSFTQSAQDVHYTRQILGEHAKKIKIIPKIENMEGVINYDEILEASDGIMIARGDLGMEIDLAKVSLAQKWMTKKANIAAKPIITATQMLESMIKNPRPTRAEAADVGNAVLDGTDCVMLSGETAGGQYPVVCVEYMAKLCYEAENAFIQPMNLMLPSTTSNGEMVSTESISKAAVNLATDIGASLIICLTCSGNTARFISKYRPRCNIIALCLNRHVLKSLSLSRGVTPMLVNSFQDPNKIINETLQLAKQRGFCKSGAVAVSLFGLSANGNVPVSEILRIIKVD
Protocol for C=C(OP(=O)(O)O)C(=O)O: as §2, §3

For orientation: Vmax means the top rate of the reaction or transport when substrate is in excess. In turn, `Nc1ncnc2c1ncn2[C@@H]1O[C@H](COP(=O)(O)OP(=O)(O)O)[C@@H](O)[C@H]1O` [ADP] displayed a Kcat on BdPyK I [1] of 16 S^−1. Also, the Vmax on BdPyK I [1] (gradient concentration) is given as 0.3234 ± 0.018 mM/min.

Usually IC50 stands for the point on the concentration scale where inhibition reaches its midpoint. As usually defined, the CC50 is the concentration giving 50% cytotoxicity. Consider `O=c1cc(-c2ccc(O)cc2)oc2cc(O)cc(O)c12` [Apigenin], for which the IC50 against BdPyK I [2] is 7.49 µM; in the series on B. duncani (setting [9]) it was 2.81 ± 1.06 µM. In addition, the “Selectivity Index (SI) Vero” value in the series on vero cells [3] was 20.64. The “Selectivity Index (SI) HFF” value in the series with HFF cells [4] is recorded as 12.8. Also, the CC50 is 58.2 ± 2.67 µM with vero cells [5] and 36 ± 2.95 µM with HFF cells [6]. In series [7], the “toxicity in vivo” value is recorded as “high toxicity”.

With `CC1=C(CSC(=S)N2CCCCC2)C(=O)c2ccccc2C1=O` [PKM2 inhibitor], the IC50 on BdPyK I [2] (setting [10]) was 10.9 µM; in the series with B. duncani (setting [9]), 0.16 ± 0.08 µM. In the series with B. duncani (at approximately 2 μM, 72 h), this molecule returned a growth inhibition rate of 85%. Besides, the “Selectivity Index (SI) Vero” value in the series on vero cells [3] stood at 243. Moreover, the “Selectivity Index (SI) HFF” value with HFF cells [4] was 116. Besides, the CC50 is 39.3 ± 8.32 µM in the series on vero cells [5] and 18.7 ± 1.99 µM with HFF cells [6].

In the case of `CCc1ccc(CCOc2ccc(CC3SC(=O)NC3=O)cc2)nc1` (stereo not shown) [Pioglitazone], the figures for the IC50 at BdPyK I [2] (setting [10]) and in the series on B. duncani (setting [11]) were 27.5 µM and 15.4 µM, respectively. The same molecule registered a parasite growth inhibition with B. duncani (72 h) of 80%.

As to `CN(CCOc1ccc(CC2SC(=O)NC2=O)cc1)c1ccccn1` (stereo not shown) [Rosiglitazone], the figures for the IC50 on BdPyK I [2] (setting [10]) and with B. duncani (setting [11]) were 7.36 µM and 20.9 µM, respectively. In the series on B. duncani (72 h), this molecule registered a parasite growth inhibition of 80%.

Turning to `CC(C)=CC[C@@H](O)C1=CC(=O)c2c(O)ccc(O)c2C1=O` [Shikonin], the IC50 turned out to be 16.5 µM on BdPyK I [2] (setting [10]) and 3.68 ± 0.48 µM in the series on B. duncani (setting [9]). Besides, the “Selectivity Index (SI) Vero” value with vero cells [3] is on record as 0.64. Moreover, the “Selectivity Index (SI) HFF” value in the series on HFF cells [4] turned out to be 0.17. Besides, the CC50 is 2.34 ± 0.29 µM with vero cells [5] and 0.63 ± 0.32 µM in the series on HFF cells [6].

By Km is commonly meant the substrate concentration at which the rate is half of its maximum. One may read the kcat as the maximal rate divided by the concentration of active sites. The kcat/Km is the second-order rate constant that governs catalysis at low substrate concentration. For the molecule BdPyK I (Babesia duncani), in the series on C=C(OP(=O)(O)O)C(=O)O, the Km was found to be 450 ± 104 µM, the Vmax was determined as 370 µM/min, the kcat was determined as 18.3 s⁻¹ and the kcat/Km was found to be 40100 M⁻¹ s⁻¹. Moreover, the Km in [8] is 310 µM and 313.6 ± 24 µM.

Consider Tannic acid, for which the IC50 worked out at 0.03 µM on BdPyK I [2] (setting [10]); 0.0332 µM on BdPyK I [2] (3 mM PEP and 3 mM ADP, read-out: IC50 on BdPyK I (Figure 9)); 0.03 µM at BdPyK I [2] (Table 3, read-out: IC50 PyK I Activity); 1.32 µM against BdLDH; 1.71 ± 0.33 µM in the series on B. duncani (in vitro culture, 72 h, Table 3, read-out: IC50 B. duncani). Moreover, the CC50 was 53 ± 2.37 µM in the series with vero cells [5] and 36.5 ± 3.88 µM in the series on HFF cells [6].

Values taken from publication PMC11205445, “Babesia duncani Pyruvate Kinase Inhibitor Screening and Identification of Key Active Amino Acid Residues” (Microorganisms, 2024).
